In article PMC8162404, “Proteomimetic surface fragments distinguish targets by function” (Chemical Science, 2020):

What was measured:
CaM [1] = molecular target: T1, CaM (Bos taurus, UniProt P62157); test: Competition pull-down with native ligand TRPV1-Ct15; format: binding, bovine; settings: H14 library; competitor peptide 200 µM; read-out: Surface mapping KD (apparent), competition
T1 construct: made in house; host or cells: E. coli BL21 (DE3)

Gal-1 [2] = molecular target: T2, Gal-1 (Homo sapiens, UniProt P09382); test: Competition pull-down with lactose; format: binding; settings: H14 library; lactose 10 mM; read-out: Surface mapping KD (apparent), competition
T2 construct: made in house; host or cells: E. coli BL21(DE3)
Procedure: Interactions between the H14 helical LSMs and the targets were abundant, but safe recognition of the native PPI interfaces on the targets is a criterion of druggability. To gain insight into the ability of the LSMs to detect orthosteric spots, we carried out pull-down assays in the presence of the native ligands (Table 2) of the targets (Fig. 5). For highlighting the effect of the competitor on the binding fingerprints, KD ratios and the LSM replacement percentages were calculated and are represented as heat maps (see ESI, Fig. S7 ^†). […] This could be explained by the glycan selective native recognition domain of the protein. We note that the replacement pattern for a single probe can, in theory, be complex. […] Moreover, a single probe can bind to both orthosteric and non-orthosteric spots, which limits overall displacement levels. To avoid overlooking interesting orthosteric weak binders, direct replacement levels were assessed (see ESI, Fig. S7 ^†).
Pull-down assay and data analysis
Pull-down assay. LSM sublibraries were screened separately as previously described.(2) Experiments were performed in the following buffers: (i) 20 mM pH 7.4 HEPES, 150 mM NaCl, 5 mM CaCl2 for CaM; (ii) 50 mM pH 7.4 HEPES, 150 mM NaCl, 1 mM TCEP, 1 mM CaCl2 for S100 proteins; (iii) 20 mM pH 7.4 HEPES, 150 mM NaCl, 1 mM TCEP for Gal-1 and (iv) 20 mM pH 7.4 HEPES, 150 mM NaCl for RecQ-WH. Assays were performed in paper filter spin cups (Thermo Scientific) with sample volumes of 100 µl. Hexahistidine-tagged proteins were immobilized on previously washed Co-NTA resin (TALON, Takara Bio USA, Inc., Mountain View, CA) in 64 µM final concentration. LSM sublibrary was added, in which each of the 64 library members were used at a concentration of 1 µM. Samples were incubated at room temperature for 30 min with shaking at 100 rpm. Then, samples were centrifuged at 1000 rpm for 2 min and washed with 100 µl pull-down buffer to remove unbound compounds.
The control experiments were performed using the same compounds and the resin but without the immobilized protein. In case of competitive assays, competitor peptides were added to LSM sublibrary samples in 200 µM final concentration. In the case of Gal-1, lactose (competitor) was used in a concentration of 10 mM. Experiments were performed at least twice. Mean […]
LC-MS methods and parameters. HPLC/ESI-MS analysis was used to characterize the samples from the pull-down assay. LC-MS analysis was performed with a Thermo Scientific Dionex UltiMate 3000 HPLC system interfaced to an LTQ ion trap mass spectrometer (Thermo Electron Corp., San Jose, CA, USA). Samples were injected onto an Aeris Widepore XB-C18 (250 x 4.6 mm) analytical HPLC column using gradient elution 5-80 % solution B during 25 minutes. For pull-down samples, eluent composition was 0.1% acetic acid in distilled water (Solution A) and 0.1% acetic acid in acetonitrile (solution B). Mass spectra were acquired in full scan mode from 200 to 2000 m/z range. For overlapping peaks, selective reaction monitoring (SRM) was […]
MS data analysis. Thermo Xcalibur 2.2 software was used for peak identification and integration. The majority of the foldameric fragments could be resolved independently via HPLC-MS/MS measurements based on molecular weight, MS fragmentation pattern and retention time. Peaks of some foldamers with β3-hIle or β3-hLeu in position R2 could not be resolved, these were integrated and averaged. In the processing method, each sample component was associated to a chromatographic peak based on previously identified mass (m/z) and retention time (ref (2) and Table S7-10). Using ICIS peak detection algorithm, the general detection and integration criteria were: smoothing points: 5, baseline window: 80, area noise factor: 5, peak noise factor: 10. Using these processing setups, all raw data files were reprocessed together and analyzed. Errors in peak identification during the automatic processing were corrected manually.
Calculation of the discussed parameters […]

CaM [3] = molecular target: T1, CaM; test: Pull-down assay with immobilized protein and LSM libraries; format: binding, bovine; settings: H14 library; 1:2 stoichiometry assumed; read-out: Surface mapping KD (apparent)
Outline: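 CaM buffer was 20 mM HEPES pH 7.4, 150 mM NaCl, 5 mM CaCl2. LSM sublibrary members ([…]) incubated 30 min, RT, with equimolar His-tagged protein on Co-NTA resin. HPLC-MS measured unbound probes; bound fraction relative to resin-only background gave dissociation constants.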

S100A4 = molecular target: T3, S100A4 (Homo sapiens, UniProt P26447); test: as above; format: binding; settings: for Kd: H14 library, 1:1 binding assumed, read-out: Surface mapping KD (apparent)
T3 construct: made in house; host or cells: Escherichia coli BL21(DE3)
Outline: (§1)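 Buffers were HEPES pH 7.4 with 150 mM NaCl, plus 1 mM TCEP and 1 mM CaCl2 (50 mM HEPES) for S100A4 and S100B, 1 mM TCEP for Gal-1, and no additive for RecQ-WH. Immobilized protein at 64 µM was equilibrated 30 min with the LSM sublibrary, and unbound probes were measured by LC-MS.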

S100B = molecular target: T4, S100B (Homo sapiens, UniProt P04271); test: as above; format: binding; settings: for Kd: H14 library, 1:1 binding assumed, read-out: Surface mapping KD (apparent)
T4 construct: made in house; host or cells: Escherichia coli BL21(DE3)
T4 sequence (P04271 1-92): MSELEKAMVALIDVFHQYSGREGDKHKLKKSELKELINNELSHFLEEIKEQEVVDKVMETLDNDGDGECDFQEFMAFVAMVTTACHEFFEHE
Outline: as §1

Gal-1 [4] = molecular target: T2, Gal-1; test: as above; format: binding; settings: H14 library; 1:1 binding assumed; read-out: Surface mapping KD (apparent)
Outline: as §1

[5] = H14 probes selected for validation

T2 sequence (P09382 whole entry): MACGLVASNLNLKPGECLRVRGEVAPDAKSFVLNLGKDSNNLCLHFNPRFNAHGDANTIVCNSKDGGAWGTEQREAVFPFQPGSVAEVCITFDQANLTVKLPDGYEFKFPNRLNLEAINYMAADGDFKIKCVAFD
T3 sequence (P26447 whole entry): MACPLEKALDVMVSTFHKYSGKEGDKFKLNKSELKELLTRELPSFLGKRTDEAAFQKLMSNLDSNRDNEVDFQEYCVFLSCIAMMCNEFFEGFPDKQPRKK

| Compound | Kd (CaM [1]) | Kd (Gal-1 [2]) | Kd (CaM [3]) | Kd (S100A4) | Kd (S100B) | Kd (Gal-1 [4]) | Binding (S100A4; H14 probes) | Affinity class of probe (high, medium, low) in pull-down (S100A4; [5]) | Binding (S100B; H14 probes) | Affinity class of probe (high, medium, low) in pull-down (S100B; [5]) |
| --- | --- | --- | --- | --- | --- | --- | --- | --- | --- | --- |
| CC(C)[C@@H](CC(=O)N[C@H]1CCCC[C@@H]1C(N)=O)NC(=O)[C@H]1CCCC[C@@H]1NC(=O)[C@H]1CCCC[C@@H]1NC(=O)C[C@H](CCC(=O)O)NC(=O)[C@H]1CCCC[C@@H]1N [H14 EV] | 492 µM | 300 µM |  |  |  |  |  |  |  |  |
| NCCCC[C@@H](CC(=O)N[C@H]1CCCC[C@@H]1C(=O)N[C@H]1CCCC[C@@H]1C(=O)N[C@@H](CC(=O)O)CC(=O)N[C@H]1CCCC[C@@H]1C(N)=O)NC(=O)[C@H]1CCCC[C@@H]1N [H14 KD] | 365 µM | 290 µM |  |  |  |  |  |  |  |  |
| NCCCC[C@@H](CC(=O)N[C@H]1CCCC[C@@H]1C(=O)N[C@H]1CCCC[C@@H]1C(=O)N[C@H](CC(=O)N[C@H]1CCCC[C@@H]1C(N)=O)Cc1ccccc1)NC(=O)[C@H]1CCCC[C@@H]1N [H14 KF] | 339 µM |  | 8 µM | 102 µM | 26 µM |  |  |  |  |  |
| NCCCC[C@@H](CC(=O)N[C@H]1CCCC[C@@H]1C(=O)N[C@H]1CCCC[C@@H]1C(=O)N[C@H](CC(=O)N[C@H]1CCCC[C@@H]1C(N)=O)Cc1c[nH]c2ccccc12)NC(=O)[C@H]1CCCC[C@@H]1N [H14 KW] | 398 µM |  | 3 µM | 184 µM | 28 µM |  |  |  |  |  |
| CSCC[C@@H](CC(=O)N[C@H]1CCCC[C@@H]1C(=O)N[C@H]1CCCC[C@@H]1C(=O)N[C@@H](CC(=O)O)CC(=O)N[C@H]1CCCC[C@@H]1C(N)=O)NC(=O)[C@H]1CCCC[C@@H]1N [H14 MD] | 278 µM |  |  | 423 µM |  |  |  |  |  |  |
| NC(=O)C[C@@H](CC(=O)N[C@H]1CCCC[C@@H]1C(=O)N[C@H]1CCCC[C@@H]1C(=O)N[C@@H](CC(=O)O)CC(=O)N[C@H]1CCCC[C@@H]1C(N)=O)NC(=O)[C@H]1CCCC[C@@H]1N [H14 ND] | 471 µM | 294 µM | 211 µM |  |  | 229 µM |  |  |  |  |
| CSCC[C@@H](CC(=O)N[C@H]1CCCC[C@@H]1C(N)=O)NC(=O)[C@H]1CCCC[C@@H]1NC(=O)[C@H]1CCCC[C@@H]1NC(=O)C[C@H](CC(N)=O)NC(=O)[C@H]1CCCC[C@@H]1N [H14 NM] | 452 µM | 406 µM | 50 µM |  |  | 350 µM |  |  |  |  |
| NC(=O)C[C@@H](CC(=O)N[C@H]1CCCC[C@@H]1C(=O)N[C@H]1CCCC[C@@H]1C(=O)N[C@@H](CO)CC(=O)N[C@H]1CCCC[C@@H]1C(N)=O)NC(=O)[C@H]1CCCC[C@@H]1N [H14 NS] | 279 µM | 427 µM | 184 µM |  |  | 310 µM |  |  |  |  |
| C[C@@H](O)[C@@H](CC(=O)N[C@H]1CCCC[C@@H]1C(N)=O)NC(=O)[C@H]1CCCC[C@@H]1NC(=O)[C@H]1CCCC[C@@H]1NC(=O)C[C@H](CC(N)=O)NC(=O)[C@H]1CCCC[C@@H]1N [H14 NT] | 336 µM | 500 µM | 187 µM |  |  | 350 µM |  |  |  |  |
| C[C@@H](CC(=O)N[C@H]1CCCC[C@@H]1C(N)=O)NC(=O)[C@H]1CCCC[C@@H]1NC(=O)[C@H]1CCCC[C@@H]1NC(=O)C[C@H](CCC(N)=O)NC(=O)[C@H]1CCCC[C@@H]1N [H14 QA] | 211 µM | 444 µM | 174 µM |  |  | 349 µM |  |  |  |  |
| NC(=O)CC[C@@H](CC(=O)N[C@H]1CCCC[C@@H]1C(=O)N[C@H]1CCCC[C@@H]1C(=O)N[C@@H](CCC(=O)O)CC(=O)N[C@H]1CCCC[C@@H]1C(N)=O)NC(=O)[C@H]1CCCC[C@@H]1N [H14 QE] | 246 µM | 380 µM | 221 µM |  |  | 295 µM |  |  |  |  |
| NC(=O)CC[C@@H](CC(=O)N[C@H]1CCCC[C@@H]1C(=O)N[C@H]1CCCC[C@@H]1C(=O)N[C@@H](CC(N)=O)CC(=O)N[C@H]1CCCC[C@@H]1C(N)=O)NC(=O)[C@H]1CCCC[C@@H]1N [H14 QN] | 304 µM |  | 177 µM |  |  | 257 µM |  |  |  |  |
| NC(=O)CC[C@@H](CC(=O)N[C@H]1CCCC[C@@H]1C(N)=O)NC(=O)[C@H]1CCCC[C@@H]1NC(=O)[C@H]1CCCC[C@@H]1NC(=O)C[C@H](CCC(N)=O)NC(=O)[C@H]1CCCC[C@@H]1N [H14 QQ] | 295 µM | 467 µM | 186 µM |  |  | 273 µM |  |  |  |  |
| C[C@@H](O)[C@@H](CC(=O)N[C@H]1CCCC[C@@H]1C(N)=O)NC(=O)[C@H]1CCCC[C@@H]1NC(=O)[C@H]1CCCC[C@@H]1NC(=O)C[C@H](CCC(N)=O)NC(=O)[C@H]1CCCC[C@@H]1N [H14 QT] | 266 µM |  | 211 µM |  |  | 325 µM |  |  |  |  |
| NC(=O)[C@H]1CCCC[C@@H]1NC(=O)C[C@H](CO)NC(=O)[C@H]1CCCC[C@@H]1NC(=O)[C@H]1CCCC[C@@H]1NC(=O)C[C@H](CO)NC(=O)[C@H]1CCCC[C@@H]1N [H14 SS] | 236 µM |  | 172 µM |  |  | 435 µM |  |  |  |  |
| C[C@@H](O)[C@@H](CC(=O)N[C@H]1CCCC[C@@H]1C(=O)N[C@H]1CCCC[C@@H]1C(=O)N[C@@H](CCCCN)CC(=O)N[C@H]1CCCC[C@@H]1C(N)=O)NC(=O)[C@H]1CCCC[C@@H]1N [H14 TK] | 485 µM |  | 88 µM |  | 172 µM |  |  |  |  |  |
| CSCC[C@@H](CC(=O)N[C@H]1CCCC[C@@H]1C(N)=O)NC(=O)[C@H]1CCCC[C@@H]1NC(=O)[C@H]1CCCC[C@@H]1NC(=O)C[C@@H](NC(=O)[C@H]1CCCC[C@@H]1N)[C@@H](C)O [H14 TM] | 113 µM |  | 46 µM | 13 µM |  |  | binds | high | does not | low |
| C[C@@H](O)[C@@H](CC(=O)N[C@H]1CCCC[C@@H]1C(=O)N[C@H]1CCCC[C@@H]1C(=O)N[C@@H](CCC(N)=O)CC(=O)N[C@H]1CCCC[C@@H]1C(N)=O)NC(=O)[C@H]1CCCC[C@@H]1N [H14 TQ] | 269 µM |  | 156 µM |  |  | 369 µM |  |  |  |  |
| NC(=O)C[C@@H](CC(=O)N[C@H]1CCCC[C@@H]1C(N)=O)NC(=O)[C@H]1CCCC[C@@H]1NC(=O)[C@H]1CCCC[C@@H]1NC(=O)C[C@H](Cc1c[nH]c2ccccc12)NC(=O)[C@H]1CCCC[C@@H]1N [H14 WN] | 294 µM |  | 14 µM | 224 µM | 168 µM |  |  |  |  |  |
